Test: xn = mol fraction of the nth substance listed
Settings: for surface tension liquid-gas: Pendant drop shape; for mass density: 101 kPa, Liquid

CC(C)=O [acetone] + O
Settings | mass density [kg/m3] | surface tension liquid-gas [mN/m]
288.15 K, x1 = 0.0099 | 994.9 | 62.59
288.15 K, x1 = 0.05 | 981.27 | 47.85
288.15 K, x1 = 0.0999 | – | 40.32
288.15 K, x1 = 0.1 | 965.81 | –
288.15 K, x1 = 0.15 | 950.41 | 35.72
288.15 K, x1 = 0.1999 | – | 33.71
288.15 K, x1 = 0.2 | 935.61 | –
288.15 K, x1 = 0.2999 | – | 30.6
288.15 K, x1 = 0.3 | 907.7 | –
288.15 K, x1 = 0.4 | 884.77 | 29.19
288.15 K, x1 = 0.4999 | – | 28.24
288.15 K, x1 = 0.5 | 863.71 | –
288.15 K, x1 = 0.5999 | – | 27.29
288.15 K, x1 = 0.6 | 845.83 | –
288.15 K, x1 = 0.6999 | – | 26.71
288.15 K, x1 = 0.7 | 830.7 | –
288.15 K, x1 = 0.7999 | – | 25.78
288.15 K, x1 = 0.8 | 818.04 | –
288.15 K, x1 = 0.8999 | – | 25.06
288.15 K, x1 = 0.9 | 805.86 | –
288.15 K, x1 = 1 | 795.65 | 24.34
293.15 K, x1 = 0.0099 | 993.87 | –
293.15 K, x1 = 0.05 | 979.34 | –
293.15 K, x1 = 0.1 | 962.9 | –
293.15 K, x1 = 0.15 | 946.79 | –
293.15 K, x1 = 0.2 | 931.54 | –
293.15 K, x1 = 0.3 | 903.09 | –
293.15 K, x1 = 0.4 | 879.81 | –
293.15 K, x1 = 0.5 | 858.56 | –
293.15 K, x1 = 0.6 | 840.53 | –
293.15 K, x1 = 0.7 | 825.3 | –
293.15 K, x1 = 0.8 | 812.56 | –
293.15 K, x1 = 0.9 | 800.27 | –
293.15 K, x1 = 1 | 790.04 | –
298.15 K, x1 = 0.0099 | 992.55 | 61.04
298.15 K, x1 = 0.05 | 977.21 | 46.14
298.15 K, x1 = 0.0999 | – | 39.07
298.15 K, x1 = 0.1 | 959.83 | –
298.15 K, x1 = 0.15 | 943.05 | 34.41
298.15 K, x1 = 0.1999 | – | 32.21
298.15 K, x1 = 0.2 | 927.37 | –
298.15 K, x1 = 0.2999 | – | 29.35
298.15 K, x1 = 0.3 | 898.35 | –
298.15 K, x1 = 0.4 | 874.8 | 27.98
298.15 K, x1 = 0.4999 | – | 27.04
298.15 K, x1 = 0.5 | 853.35 | –
298.15 K, x1 = 0.5999 | – | 26.03
298.15 K, x1 = 0.6 | 835.15 | –
298.15 K, x1 = 0.6999 | – | 25.44
298.15 K, x1 = 0.7 | 819.8 | –
298.15 K, x1 = 0.7999 | – | 24.51
298.15 K, x1 = 0.8 | 806.97 | –
298.15 K, x1 = 0.8999 | – | 23.8
298.15 K, x1 = 0.9 | 794.6 | –
298.15 K, x1 = 1 | 784.33 | 23.02
303.15 K, x1 = 0.0099 | 991 | –
303.15 K, x1 = 0.05 | 974.89 | –
303.15 K, x1 = 0.1 | 956.64 | –
303.15 K, x1 = 0.15 | 939.23 | –
303.15 K, x1 = 0.2 | 923.1 | –
303.15 K, x1 = 0.3 | 893.54 | –
303.15 K, x1 = 0.4 | 869.68 | –
303.15 K, x1 = 0.5 | 848.07 | –
303.15 K, x1 = 0.6 | 829.71 | –
303.15 K, x1 = 0.7 | 814.25 | –
303.15 K, x1 = 0.8 | 801.32 | –
303.15 K, x1 = 0.9 | 788.88 | –
303.15 K, x1 = 1 | 778.57 | –
308.15 K, x1 = 0.0099 | 989.16 | 59.26
308.15 K, x1 = 0.05 | 972.41 | 44.78
308.15 K, x1 = 0.0999 | – | 37.88
308.15 K, x1 = 0.1 | 953.33 | –
308.15 K, x1 = 0.15 | 935.32 | 33.13
308.15 K, x1 = 0.1999 | – | 30.74
308.15 K, x1 = 0.2 | 918.78 | –
308.15 K, x1 = 0.2999 | – | 28.08
308.15 K, x1 = 0.3 | 888.68 | –
308.15 K, x1 = 0.4 | 864.53 | 26.78
308.15 K, x1 = 0.4999 | – | 25.82
308.15 K, x1 = 0.5 | 842.72 | –
308.15 K, x1 = 0.5999 | – | 24.81
308.15 K, x1 = 0.6 | 824.22 | –
308.15 K, x1 = 0.6999 | – | 24.25
308.15 K, x1 = 0.7 | 808.63 | –
308.15 K, x1 = 0.7999 | – | 23.2
308.15 K, x1 = 0.8 | 795.62 | –
308.15 K, x1 = 0.8999 | – | 22.56
308.15 K, x1 = 0.9 | 783.11 | –
308.15 K, x1 = 1 | 772.76 | 21.72
313.15 K, x1 = 0.0099 | 987.26 | –
313.15 K, x1 = 0.05 | 969.77 | –
313.15 K, x1 = 0.1 | 949.91 | –
313.15 K, x1 = 0.15 | 931.31 | –
313.15 K, x1 = 0.2 | 914.37 | –
313.15 K, x1 = 0.3 | 883.75 | –
313.15 K, x1 = 0.4 | 859.33 | –
313.15 K, x1 = 0.5 | 837.31 | –
313.15 K, x1 = 0.6 | 818.66 | –
313.15 K, x1 = 0.7 | 802.96 | –
313.15 K, x1 = 0.8 | 789.84 | –
313.15 K, x1 = 0.9 | 777.29 | –
313.15 K, x1 = 1 | 766.91 | –
318.15 K, x1 = 0.0099 | 985.07 | 58.11
318.15 K, x1 = 0.05 | 966.73 | 43.74
318.15 K, x1 = 0.0999 | – | 36.87
318.15 K, x1 = 0.1 | 946.37 | –
318.15 K, x1 = 0.15 | 927.21 | 32.02
318.15 K, x1 = 0.1999 | – | 29.4
318.15 K, x1 = 0.2 | 909.89 | –
318.15 K, x1 = 0.2999 | – | 26.98
318.15 K, x1 = 0.3 | 878.76 | –
318.15 K, x1 = 0.4 | 854.06 | 25.47
318.15 K, x1 = 0.4999 | – | 24.53
318.15 K, x1 = 0.5 | 831.85 | –
318.15 K, x1 = 0.5999 | – | 23.63
318.15 K, x1 = 0.6 | 813.05 | –
318.15 K, x1 = 0.6999 | – | 22.94
318.15 K, x1 = 0.7 | 797.22 | –
318.15 K, x1 = 0.7999 | – | 22.02
318.15 K, x1 = 0.8 | 784.05 | –
318.15 K, x1 = 0.8999 | – | 21.19
318.15 K, x1 = 0.9 | 771.4 | –
318.15 K, x1 = 1 | 760.99 | 20.38
323.15 K, x1 = 0.0099 | 982.76 | –
323.15 K, x1 = 0.05 | 963.1 | –
323.15 K, x1 = 0.1 | 942.68 | –
323.15 K, x1 = 0.15 | 923 | –
323.15 K, x1 = 0.2 | 905.19 | –
323.15 K, x1 = 0.3 | 873.7 | –
323.15 K, x1 = 0.4 | 848.74 | –
323.15 K, x1 = 0.5 | 826.32 | –
323.15 K, x1 = 0.6 | 807.35 | –
323.15 K, x1 = 0.7 | 791.42 | –
323.15 K, x1 = 0.8 | 778.16 | –
323.15 K, x1 = 0.9 | 765.46 | –
323.15 K, x1 = 1 | 755.02 | –
328.15 K, x1 = 0.0099 | 980.29 | 57.74
328.15 K, x1 = 0.05 | 959.94 | 42.86
328.15 K, x1 = 0.0999 | – | 35.71
328.15 K, x1 = 0.1 | 938.87 | –
328.15 K, x1 = 0.15 | 918.72 | 30.76
328.15 K, x1 = 0.1999 | – | 28.31
328.15 K, x1 = 0.2 | 900.64 | –
328.15 K, x1 = 0.2999 | – | 25.68
328.15 K, x1 = 0.3 | 868.56 | –
328.15 K, x1 = 0.4 | 843.31 | 24.23
328.15 K, x1 = 0.4999 | – | 23.28
328.15 K, x1 = 0.5 | 820.73 | –
328.15 K, x1 = 0.5999 | – | 22.26
328.15 K, x1 = 0.6 | 801.6 | –
328.15 K, x1 = 0.6999 | – | 21.73
328.15 K, x1 = 0.7 | 785.55 | –
328.15 K, x1 = 0.7999 | – | 20.9
328.15 K, x1 = 0.8 | 772.2 | –
328.15 K, x1 = 0.8999 | – | 20.19
328.15 K, x1 = 0.9 | 759.81 | –
328.15 K, x1 = 1 | 748.98 | 19.15

Reference: the NIST ThermoML archive (doi:10.1021/je7000182)
